Reference: US20250122202A1, “EGFR INHIBITOR, PREPARATION METHOD THEREFOR AND USE THEREOF” (SHANDONG NEW TIME PHARMACEUTICAL CO., LTD., priority 2021, published 2025)
Where two headings read alike, the source gives them in different places.

How the values were obtained:
[1] = tested on: A549 EGFR-WT; experiment: Cell proliferation inhibition experiment (CCK-8), A549; settings: Homo sapiens, A549, 72 h, read-out: cell proliferation inhibition IC50 (μM) A549, 72 h, CCK-8
[2] = tested on: KC-1474 cell subcutaneous transplantation tumor; experiment: In-vivo drug efficacy study, KC-1474 cell subcutaneous transplantation tumor in NPG mice; settings: for tumor volume inhibition rate (TGITV) / tumor weight inhibition rate (TGITW): 39 days, end of experiment
Procedure: Female SPF NPG mice weighed 19-22 g were used. The experimental animals were provided by Beijing Vitalstar Biotechnology Co., Ltd. with the experimental animal production license number SCXK (Jing) 2019-0002 and the experimental animal quality certification number of No.110341211100087928.
KC-1474 cells used in the experiment were cultured in a 5% CO2 37° C. incubator with an RPMI1640 medium supplemented with 10% FBS and […] of puromycin. Before the cells were continuously cultured for ten passages, the KC-1474 cells were adjusted to a concentration of 1×10^8/mL, and mixed with Matrigel at a volume ratio of 1:1, and the mixture was inoculated subcutaneously into the right lateral thorax of the NPG mice at 0.1 mL/mouse with 5×10^6 cells per mouse.
When the mean tumor volume of the mice reached about 100-130 mm^3, according to the tumor volume and weight, all the mice were randomly divided into […] group respectively: a model group (V), an example 60 compound oral administration group (po), an example 60 compound intravenous injection low-dose group (L), and an example 60 compound intravenous injection medium-dose group (M). The mice in all the groups were administrated once daily. The administration started on the day of the grouping and continued for 39 days. The mice in the model group were intravenously injected with the same volume of a solvent. The solvent was prepared by adding 2 g of polyethylene glycol-15 hydroxystearate (HS15) into 4 mL of dimethyl sulfoxide (DMSO), then adding 40 mL of purified water, and filtering an obtained mixture by using a 0.22-μm sterilizing filter. At the end of the experiment or the humane endpoint, the animals were euthanized using sodium pentobarbital for anesthesia.
Tumor volume was measured once during the grouping, once per week after the grouping using a vernier caliper, and before the euthanasia. A method for measuring the tumor volume was measuring the long diameter and the short diameter of a tumor using the vernier caliper.
The tumor volume was calculated by the formula: tumor volume=0.5×long diameter×short diameter^2.
(Ti: mean tumor volume of mice in the treatment groups on day i of the administration and T0: mean tumor volume of the mice in the treatment group on day 0 of the administration; and Vi: mean tumor volume of the mice in the model group on day i of the administration and V0: mean tumor volume of the mice in the model group on day 0 of the administration).
At the end of the experiment, the tumor tissue was stripped after the animals were euthanized, the tumor weight was weighed, and the tumor weight inhibition rate was calculated according to the following formula:
TGITW(%)=(Wmodel group−Wtreatment group)/Wmodel group×100%, wherein the W means tumor weight.
Original data was analyzed and the results were expressed as mean±standard deviation (mean±SD). At the same time, the tumor volume and the tumor weight were subjected to statistical analysis. AP<0.05 was considered to be a significant difference.

[3] = tested on: PC-9 EGFR-Del19; experiment: Cell proliferation inhibition experiment (CCK-8), PC-9; assay type: cell-based; settings: Homo sapiens, 72 h
Excerpt: Inhibition rate %=[(A0−AS)/(A0−AC)]×100%.

- IC50 [1]: 0.1 to 1 µM
- IC50 ([1]; Table 5 numeric): 0.23 µM
- animal condition during the administration and observation ([2]; all groups, qd for 39 days): no diarrhea, vomiting, or rash
- IC50 [3]: < 0.1 µM
SMILES: CN1CCN(c2ccc(Nc3nc(N[C@H]4CC[C@@H](CO)CC4)c4c(C(=O)c5ccc(F)cc5)c[nH]c4n3)cc2)CC1 [Example 60]
- tumor volume inhibition rate (TGITV) ([2]; L group, 3 mg/kg qd iv): 31%
- tumor weight inhibition rate (TGITW) ([2]; L group, 3 mg/kg qd iv): 22%
- tumor volume inhibition rate (TGITV) ([2]; M group, 10 mg/kg qd iv): 57%
- tumor weight inhibition rate (TGITW) ([2]; M group, 10 mg/kg qd iv): 61%
- tumor volume inhibition rate (TGITV) ([2]; po group, 20 mg/kg qd po): 28%
- tumor weight inhibition rate (TGITW) ([2]; po group, 20 mg/kg qd po): 21%
